Experimental data taken from patent US20240174690A1, “ANNULATED 2-AMINO-3-CYANO THIOPHENES AND DERIVATIVES FOR THE TREATMENT OF CANCER” (BOEHRINGER INGELHEIM INTERNATIONAL GMBH, priority 2021, published 2024).
Converted amounts (≈) assume the structure as drawn. Read-outs that look alike come from different tables or passages of the source.

How the values were obtained:
[1] = Solubility measurement (DMSO solution method), McIlvaine buffer pH 4.5 or 6.8; format: physicochemical; settings: aqueous buffer, kinetic from dmso stock, DMSO stock diluted to 250 μM, 24 h shaking at ambient temperature
Method in brief: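 DMSO stock diluted into McIlvaine buffer, pH 4.5 or 6.8, to 250 µM final, shaken 24 h at ambient temperature. Precipitate removed by filtration; filtrate quantified by LC-UV against a fully dissolved reference in acetonitrile/water 1:1.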

[2] = tested on: KRAS G12V-dependent Ba/F3 cells; assay: Ba/F3 proliferation assay, KRAS G12V; format: cell-based; settings: Mus musculus, BaF3, 72 h, AlamarBlue;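 further: proliferation IC50 in KRAS G12V-dependent Ba/F3 cells read by AlamarBlue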
Method in brief: (§1)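 Viability is measured as AlamarBlue fluorescence in Ba/F3 cells that depend on a transduced mutant KRAS isoform for growth without IL-3. Each treatment is run in technical duplicate, and dose-response curves are fitted.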

[3] = molecular target: KRAS (G12D)::SOS1 (Homo sapiens (Human), UniProt P01116, G12D); assay: KRAS::SOS1 AlphaScreen binding assay, KRAS G12D
KRAS (G12D)::SOS1, sequence (P01116 other isoform, or with tags, fused parts or gaps G12D): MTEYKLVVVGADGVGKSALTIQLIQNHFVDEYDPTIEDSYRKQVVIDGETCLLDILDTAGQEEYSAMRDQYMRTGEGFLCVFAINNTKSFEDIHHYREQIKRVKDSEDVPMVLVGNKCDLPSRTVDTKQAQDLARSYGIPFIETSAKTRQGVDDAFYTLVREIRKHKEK
Method in brief: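 AlphaScreen measurement of compound disruption of biotinylated, GDP-loaded KRAS 1-169 (10 nM; G12C 7.5 nM) binding to GST-SOS1 564-1049 (5 nM with G12D/G12C, 10 nM otherwise), with 10 μM GDP in PBS/0.1% BSA/0.05% Tween 20. Timing was 30 min compound preincubation, then 60 min with beads at room temperature; top concentration 100 μM, 4-parameter IC50.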

[4] = tested on: KRAS G12D-dependent Ba/F3 cells; assay: Ba/F3 proliferation assay, KRAS G12D; format: cell-based; settings: Mus musculus, BaF3, 72 h, AlamarBlue
Method in brief: as §1

[5] = McIlvaine buffer pH 4.5, read-out: solubility pH 4.5
[6] = McIlvaine buffer pH 6.8, read-out: solubility pH 6.8

SMILES	solubility at 24 h [1, 5]	solubility at 24 h [1, 6]	IC50 [2]	IC50 [3]	IC50 [4]
C[C@H](Oc1cc(N2CCNC[C@]23CCOC3)nc(-c2onc3c2CCC[C@@]32CCCc3sc(N)c(C#N)c32)n1)[C@@H]1CCCN1C [I-12]	> 152 µg/mL	125 µg/mL (≈ 198 µM)	343 nM	1 nM	4 nM
C[C@H](Oc1cc(N2CCNC[C@@]23CCOC3)nc(-c2onc3c2CCC[C@@]32CCCc3sc(N)c(C#N)c32)n1)[C@@H]1CCCN1C [I-13]	> 148 µg/mL	> 150 µg/mL	821 nM	1 nM	49 nM
C[C@H](Oc1cc(-n2cncc3ccnc2-3)nc(-c2onc3c2CCC[C@@]32CCCc3sc(N)c(C#N)c32)n1)[C@@H]1CCCN1C [I-14]	41 µg/mL (≈ 67.5 µM)	< 1 µg/mL	7 nM	3 nM	18 nM
C[C@H]1CNCCCN1c1nc(-c2onc3c2CCC[C@@]32CCCc3sc(N)c(C#N)c32)cc(C(F)(F)F)n1 [I-15]	1 µg/mL (≈ 1.84 µM)	< 1 µg/mL		348 nM	1130 nM
C[C@H](Oc1cc(-c2cn(C)nn2)nc(-c2onc3c2CCC[C@@]32CCCc3sc(N)c(C#N)c32)n1)[C@@H]1CCCN1C [I-16]	> 118 µg/mL	82 µg/mL (≈ 143 µM)	9 nM	2 nM	32 nM
CO[C@@H]1C[C@@H]([C@H](C)Oc2cc(-c3cnn(C)n3)nc(-c3onc4c3CCC[C@@]43CCCc4sc(N)c(C#N)c43)n2)N(C)C1 [I-17]			23 nM	15 nM	77 nM
C[C@H](Oc1cc(-n2cncn2)nc(-c2onc3c2CCC[C@@]32CCCc3sc(N)c(C#N)c32)n1)[C@@H]1CCCN1C [I-18]	> 121 µg/mL	91 µg/mL (≈ 163 µM)	8 nM	3 nM	22 nM
C[C@H](Oc1cc(N2Cc3cnn(C)c3C2)nc(-c2onc3c2CCC[C@@]32CCCc3sc(N)c(C#N)c32)n1)[C@@H]1CCCN1C [I-19]	48 µg/mL (≈ 78.5 µM)	14 µg/mL (≈ 22.9 µM)	23 nM	12 nM	165 nM

More lines, now with the values ahead:

solubility at 24 h [1, 5]	solubility at 24 h [1, 6]	IC50 [2]	IC50 [3]	IC50 [4]	SMILES
< 1 µg/mL	< 1 µg/mL	16 nM	6 nM	109 nM	C[C@H](Oc1cc(-n2cc(-c3cncs3)nn2)nc(-c2noc3c2CCC[C@@]32CCCc3sc(N)c(C#N)c32)n1)[C@@H]1CCCN1C [II-125]
123 µg/mL (≈ 196 µM)	104 µg/mL (≈ 166 µM)	26 nM	7 nM	211 nM	C[C@H](Oc1cc(-n2cnc(C(=O)N(C)C)c2)nc(-c2noc3c2CCC[C@@]32CCCc3sc(N)c(C#N)c32)n1)[C@@H]1CCCN1C [II-126]
> 127 µg/mL	39 µg/mL (≈ 62.2 µM)	13 nM	3 nM	109 nM	C[C@H](Oc1cc(-c2ccn([C@H]3CCOC3)n2)nc(-c2noc3c2CCC[C@@]32CCCc3sc(N)c(C#N)c32)n1)[C@@H]1CCCN1C [II-127]
> 130 µg/mL	42 µg/mL (≈ 65.9 µM)	31 nM	2 nM	83 nM	C[C@H](Oc1cc(-c2ccn(Cc3ncco3)n2)nc(-c2noc3c2CCC[C@@]32CCCc3sc(N)c(C#N)c32)n1)[C@@H]1CCCN1C [II-128]
> 130 µg/mL	15 µg/mL (≈ 23.4 µM)	9 nM	3 nM	92 nM	C[C@H](Oc1cc(-c2ccn(C[C@H]3CCOC3)n2)nc(-c2noc3c2CCC[C@@]32CCCc3sc(N)c(C#N)c32)n1)[C@@H]1CCCN1C [II-129]
< 1 µg/mL	< 1 µg/mL	6 nM	2 nM	45 nM	C[C@H](Oc1cc(-n2ccc(-c3cnccn3)n2)nc(-c2noc3c2CCC[C@@]32CCCc3sc(N)c(C#N)c32)n1)[C@@H]1CCCN1C [II-130]
		19 nM	6 nM	145 nM	C[C@H](Oc1cc(-n2nccc2-c2ccncc2)nc(-c2noc3c2CCC[C@@]32CCCc3sc(N)c(C#N)c32)n1)[C@@H]1CCCN1C [II-131]
117 µg/mL (≈ 186 µM)	100 µg/mL (≈ 159 µM)	6 nM	3 nM	99 nM	C[C@H](Oc1cc(-n2cc(C(=O)N(C)C)nn2)nc(-c2noc3c2CCC[C@@]32CCCc3sc(N)c(C#N)c32)n1)[C@@H]1CCCN1C [II-132]
